{"source": "patent US20010034023A1", "about": "“Gene sequence variations with utility in determining the treatment of disease, in genes relating to drug processing” (priority 1999, published 2001)", "origin": "cited, not measured here", "key": {"[1]": {"conditions": "high dose"}, "[2]": {"conditions": "PDR"}, "[3]": {"assay": "not given", "remark": "listed apart in the source"}, "[4]": {"test_system": "hepatitis C virus infection"}, "[5]": {"conditions": "Alzheimer's patients receiving Cognex"}}, "note": "Counter-ions that a name gives are not always drawn."}
{"compound": "O=c1[nH]cc(F)c(=O)[nH]1", "note": "[5-fluorouracil]", "values": [{"measurement": "patients with an objective response to the drug", "setting": "advanced colorectal cancer", "value": "20-40%"}, {"measurement": "patients with a complete response (complete tumor disappearance)", "setting": "advanced colorectal cancer, of the objective responders", "value": "1-5%"}, {"measurement": "patients suffering serious gastrointestinal or hematopoietic toxicity", "setting": "up to, depending on the regimen", "value": "20-30%"}]}
{"compound": "CC(=O)Nc1ccc(O)cc1", "note": "[Acetominophen]", "values": [{"measurement": "dose required for significant liver injury to occur", "setting": "[1]", "value": "10-15 grams"}]}
{"compound": "Nc1c2c(nc3ccccc13)CCCC2", "note": "[Cognex, tacrine hydrochloride]", "values": [{"measurement": "patients showing no change or minimal worsening of their disease", "setting": "[2]; Alzheimer's disease patients receiving Cognex", "value": "about 45%"}, {"measurement": "patients minimally improved", "setting": "[2]; [5]", "value": "About 58%"}, {"measurement": "patients much improved", "setting": "[2]; [5]", "value": "about 2%"}]}
{"compound": "NNC(=O)c1ccncc1", "note": "[INH, Isoniazid]", "values": [{"measurement": "persons in whom subclinical liver injury occurs", "setting": "[3]; persons taking INH", "value": "10-20%"}, {"measurement": "hepatotoxicity in slow acetylators", "setting": "[3]; slow acetylators", "value": "more hepatotoxic"}]}
{"compound": "interferon alpha", "values": [{"measurement": "patients in whom viral infection is completely and permanently eliminated", "setting": "[4]", "value": "less than a quarter of patients"}, {"measurement": "patients receiving virtually no benefit", "setting": "[4]", "value": "Nearly half of patients"}]}
